Reference: patent US12606795B2 (Thankcome Biological Science and Technology (SuZhou) Co., …, priority 2023, dated 2026)
≈ marks a conversion by molar mass, not a printed value.

How the values were obtained:
[1] = test system: AKK PROBIO; experiment: Drug sensitivity, agar dilution method (CLSI); type: cell-based, Akkermansia muciniphila; conditions: for MIC: Akkermansia muciniphila, read-out: Test strain AKK PROBIO MIC, agar dilution method; for Test strain AKK PROBIO Judgment result: judged by CLSI S/I/R criterion of Table 6
Method: Referring to the Clinical and Laboratory Standards Institute (CLSI) method [CLSI. Performance Standards for Antimicrobial Susceptibility Testing; 26th ed. CLSI supplement M100S.
The sensitivity of AKK PROBIO to ampicillin, ceftriaxone, cefotaxime, meropenem, tetracycline, moxifloxacin, and chloramphenicol was determined using an agar dilution method recommended by CLSI. The quality-control strain B. fragilis ATCC 25285 was determined using a micro broth dilution method recommended by CLSI.

[2] = test system: Bacteroides fragilis ATCC 25285; experiment: Drug sensitivity of quality-control strain, micro broth dilution method (CLSI); type: cell-based; conditions: ATCC25285
Method: Bacteroides fragilis ATCC 25285 was selected as a quality-control strain. The sensitivity of […] to ampicillin, ceftriaxone, cefotaxime, meropenem, tetracycline, moxifloxacin, and chloramphenicol was determined using an agar dilution method recommended by CLSI. The quality-control strain B. fragilis ATCC 25285 was determined using a micro broth dilution method recommended by CLSI.

[3] = test system: gouty arthritis mouse model; experiment: Gouty arthritis mouse model (sodium urate); type: in vivo, BALB/c mice; conditions: glucosamine sulfate 195 mg/kg. bw intragastric
Method: Mice were randomly divided into 5 groups: a normal group, a model group, a glucosamine sulfate (positive control) group, an Akk low-concentration experimental (Akk-L) group, and an Akk high-concentration experimental (Akk-H) group, with 10 mice in each group. The mice in the normal group and the mice in the model group were intragastrically administered with distilled water at a dosage of 0.1 mL/10 g. bw per day. The mice in the glucosamine sulfate group were intragastrically administered with glucosamine sulfate at a dosage of 195 mg/kg. bw. The mice in the Akk-L group and the mice in the Akk-H group were intragastrically administered with Akk experimental bacteria at a dosage of 10^8 CFU/kg. bw and 10^9 CFU/kg. bw, respectively, for 7 consecutive days. Then, all experimental mice were anesthetized with isoflurane, and then 50 μL of PBS solution was injected into the tibiotarsal joint (ankle joint) of the right paw of the mouse in the normal group. 50 mg of sodium urate was added to 1 mL of PBS buffer to prepare a suspension. 50 μL of suspension was injected into the tibiotarsal joints (ankle joint) of the right paws of the rest of the mice except the mice in the […] to induce gouty arthritis. After the mice woke up, they were intragastrically administrated with a corresponding sample for 7 d still at the dosage of the sample intragastrically administrated in the previous 7 days.
0.1 g of mouse ankle joint tissue was weighed and added into […] containing 0.9 mL of saline and mixing was performed. Subsequently, mixed tissue samples were centrifuged at a speed of 4000 rpm for 10 min to obtain liquid supernatant. Next, related indicators in the liquid supernatant of a tissue homogenate was determined using assay kits for MPO, SOD, GSH, and MDA.
A taken-out whole blood sample of the mouse was centrifuged at 4° C. at 4000 rpm for 10 min to obtain supernatant serum. Serum-related inflammatory indicators were determined using the ELISA kit for IL-6, IL-10, IL-1β, and TNF-α.

[4] = test system: AOM/DSS-induced colorectal carcinoma mice; experiment: AOM/DSS-induced colorectal carcinoma mice; type: in vivo, C57BL/6 mice
Method: 6-week-old SPF male C57BL/6 mice, purchased from the Chongqing Lepitt Biotechnology Co., Ltd. The mice were raised in a standardized laboratory with room temperature of 25° C.±2° C., relative humidity of 50%±5%, and 12 h of light/12 h of darkness. […] In experiments, mice were given free feeding and water. On the first day of experimental molding, the mice in the model group, the aspirin group, and the AKKP group were injected intraperitoneally with AOM at a dosage of 10 mg/kg, and were fed with 2.5% DSS aqueous solution at weeks 2, 5, and 8. The mice in the normal group and model group were intragastrically administrated with sterile saline; the mice in the aspirin group were intragastrically administrated with an aspirin solution at 67 mg/kg, and the mice in the AKKPL group and the AKKPH group were intragastrically administrated at dosages of 1×10^8 CFU/kg and 1×10^9 CFU/kg, respectively, for 10 consecutive weeks. In the experiments, diet, activity, vigor and hair conditions, and fecal properties of the mice in each group were observed. Each mouse was weighed per week and the body weights were recorded. After the experiments, blood was collected from eyeballs and the mice were sacrificed by removing their vertebrae. The mice were dissected to take out large intestine tissue, spleen tissue, liver tissue, and the kidney tissue for later testing.
After the mice were dissected, the large intestine tissue, the spleen tissue, the liver tissue, and the kidney tissue were taken out and weighed. An organ Index was calculated using a formula, while the colorectum length of the mouse was measured and the colorectal tumorigenesis number of the mouse was recorded. Organ index=organ weight (mg)/mouse body weight (g).
After being fixed in a tissue fixative for 24 h, the rectum of the mouse was transferred into 95% ethanol for dehydration, and then the dehydrated rectum was placed in xylene to replace alcohol in the tissue to make the rectum tissue transparent. Then, the treated rectum was embedded with paraffin. The embedded rectum was sectioned by a microtome, and then a tissue section was stained with H&E and fixed, obtaining a pathologic tissue section, with a thickness of 2 to 3 μm, of the rectum of the mouse, and the pathologic tissue section was observed under the upright microscope.
Whole blood was collected from the eyeballs, and centrifuged at 4000 r/min and 4° C. for 10 min to separate supernatant serum. According to the instruction of the ELISA kit, the levels of IL-1β, IL-6, IFN-γ, iNOS and NF-κB in the serum of the mouse were determined.
About 50 mg colon tissue was taken and cleaned with saline, and the cleaned colon tissue was placed in a homogenization tube containing 6 zirconia beads, and 500 μL TRIzol™ reagent was added to extract RNA in the tissue. The purity and concentration of RNA were determined using the micro-spectrophotometer. […] Then, after cDNA was generated by reverse transcription, a reaction system containing 1 μL cDNA was prepared. Other reagents include 10 μL qPCR SYBR Green Master Mix, […] sterile distilled water, 1 μL forward primer and 1 μL reverse primer. qRT-PCR amplification reaction conditions: 95° C., 10 s, 60° C., 30 s, 40 cycles; 95° C., 15 s, 60° C., 60 s, 95° C., 15 s. Taking Eef2 as an internal reference gene, the mRNA relative expression of each target gene was calculated according to formula 2^−ΔΔCt.

[5] = qRT-PCR, aspirin 67 mg/kg or AKKPH 1×10^9 CFU/kg, vs model group, P<0.05
[6] = qRT-PCR, vs model group, P<0.05

CC1(C)S[C@@H]2[C@H](NC(=O)[C@H](N)c3ccccc3)C(=O)N2[C@H]1C(=O)O [Ampicillin, ampicillin]
MIC [1]: < 0.25 µg/mL | Test strain AKK PROBIO Judgment result [1]: Sensitive | Test strain AKK PROBIO Judgment result ([1]; listed as ampicillin): sensitive | MIC [2]: 64 µg/mL (≈ 183 µM)

CO/N=C(\C(=O)N[C@@H]1C(=O)N2C(C(=O)O)=C(COC(C)=O)CS[C@H]12)c1csc(N)n1 [Cefotaxime, cefotaxime]
MIC [1]: 16 µg/mL (≈ 35.1 µM) | Test strain AKK PROBIO Judgment result [1]: Sensitive | Test strain AKK PROBIO Judgment result ([1]; listed as cefotaxime): sensitive | MIC [2]: 32 µg/mL (≈ 70.3 µM)

CO/N=C(\C(=O)N[C@@H]1C(=O)N2C(C(=O)O)=C(CSc3nc(=O)c(=O)[nH]n3C)CS[C@H]12)c1csc(N)n1 [Ceftriaxone, ceftriaxone]
MIC [1]: 8 µg/mL (≈ 14.4 µM) | Test strain AKK PROBIO Judgment result [1]: Sensitive | Test strain AKK PROBIO Judgment result ([1]; listed as ceftriaxone): sensitive | MIC [2]: 128 µg/mL (≈ 231 µM)

O=C(N[C@H](CO)[C@H](O)c1ccc([N+](=O)[O-])cc1)C(Cl)Cl [Chloramphenicol, chloramphenicol]
MIC [1]: 4 µg/mL (≈ 12.4 µM) | Test strain AKK PROBIO Judgment result [1]: Sensitive | Test strain AKK PROBIO Judgment result ([1]; listed as chloramphenicol): sensitive | MIC [2]: 8 µg/mL (≈ 24.8 µM)

N[C@H]1C(O)O[C@H](CO)[C@@H](O)[C@@H]1O.O=S(=O)(O)O (some centres unmarked) [Glucosamine sulfate, glucosamine sulfate, reference compound]
SOD in mouse ankle joint tissue ([3]; model group 1.07, normal 6.07): 2.50 ± 0.40 U/mg | MPO in mouse ankle joint tissue ([3]; model group 2.49, normal 0.38): 1.82 ± 0.17 U/g | GSH in mouse ankle joint tissue ([3]; model group 18.06, normal 47.05): 31.14 ± 1.66 mg/g | IL-1β in serum of mice ([3]; model group 24.97, normal 12.66): 21.15 ± 1.22 ng/mL | MDA in mouse ankle joint tissue ([3]; model group 26.69, normal 5.74): 20.31 ± 1.52 nmol/mg | IL-10 in serum of mice ([3]; model group 36.03, normal 27.20): 32.84 ± 1.94 ng/mL | IL-6 in serum of mice ([3]; model group 90.05, normal 52.97): 66.85 ± 4.90 ng/mL | TNF-α in serum of mice ([3]; model group 249.41, normal 117.58): 204.43 ± 15.32 ng/mL

C[C@@H](O)[C@H]1C(=O)N2C(C(=O)O)=C(S[C@@H]3CN[C@H](C(=O)N(C)C)C3)[C@H](C)[C@H]12 [Meropenem, meropenem]
MIC [1]: 0.125 µg/mL (≈ 0.326 µM) | Test strain AKK PROBIO Judgment result [1]: Sensitive | Test strain AKK PROBIO Judgment result ([1]; listed as meropenem): sensitive | MIC [2]: 0.25 µg/mL (≈ 0.652 µM)

CN(C)[C@@H]1C(O)=C(C(N)=O)C(=O)[C@@]2(O)C(O)=C3C(=O)c4c(O)cccc4[C@@](C)(O)[C@H]3C[C@@H]12 [Tetracy cline, tetracycline]
MIC [1]: 2 µg/mL (≈ 4.5 µM) | MIC [2]: 0.5 µg/mL (≈ 1.13 µM)

CC(=O)Oc1ccccc1C(=O)O [aspirin, reference compound]
body weight loss ([4]; AOM/DSS mice, intragastric 10 weeks, aspirin 67 mg/kg, AKKP 1×10^8 and 1×10^9 CFU/kg): alleviate the body weight loss in the mice to a certain extent | content of IL-6 in serum ([4]; ELISA, vs model group): reduced | content of IFN-γ in serum ([4]; ELISA, vs model group, P<0.05): reduced | content of IL-1β in serum ([4]; ELISA, vs model group, P<0.05): lower than that in the model group | content of NF-κB in serum ([4]; ELISA, vs model group, P<0.05): reduced | content of iNOS in serum ([4]; ELISA, vs model group, P<0.05): reduced | colorectum weight/length (ratio) ([4]; aspirin 67 mg/kg intragastric 10 weeks, model group 4.34±0.35, normal 2.81±0.34): 3.17±0.50 | pathological morphology of rectum tissue (H&E) ([4]; aspirin, AKKPL and AKKPH groups): no obvious erosion found in the rectal mucosa | kidney index / renal tissue ([4]; between the five groups, P>0.05): no significant difference | mRNA relative expression of IκBβ in colon tissue [4, 5]: significantly reduced | mRNA relative expression of p50 in colon tissue [4, 5]: significantly reduced | mRNA relative expression of Bid in colon tissue [4, 6]: significantly increased | mRNA relative expression of Bim in colon tissue [4, 6]: significantly increased | mRNA relative expression of caspase-9 in colon tissue [4, 6]: significantly increased | mRNA relative expression of p52 in colon tissue [4, 6]: significantly reduced | mRNA relative expression of p65 in colon tissue [4, 6]: significantly reduced | colorectal tumorigenesis number ([4]; vs model group, P<0.05): significantly smaller | liver weight (liver index) ([4]; vs model group, P<0.05): reduced | spleen weight (spleen index) ([4]; vs model group, P<0.05): reduced | colorectum length ([4]; vs model group, P<0.05, aspirin 67 mg/kg, AKKP 1×10^8 and 1×10^9 CFU/kg, 10 weeks): relatively long
